Structures can show the parent of a compound that is named as a salt. Where two headings read alike, the source gives them in different places.
Assays:
[1] = tested on: phospho-ERK in GP2D cells; assay: Inhibition of phospho-ERK in GP2D cells (Odyssey in-cell imaging); assay type: cell-based; details: Homo sapiens, 1 hour compound, EGF stimulation, read-out: Inhibitory effects on intracellular phospho-ERK IC50
Method: Assay example 3. Inhibitory effect of compounds on phospho-ERK in GP2D cells
In this assay, the inhibitory effect of the assayed compounds on the phosphorylation of ERK protein downstream of the KRAS […] signaling pathway in human colon cancer GP2D cells was analyzed.
2. Reagents, consumables and instruments
3.Assay process 1. Cell culture
1) GP2D cells were cultured in a cell culture 75 flask at 37° C., 5% CO2, and the medium was DMEM medium (added with 10% FBS and 1% P/S).
2) After cultivation for 2 days, the medium was removed and the sterile PBS buffer was used to wash once.
3) 3 mL of trypsin was added and the cells were digested in a 37° C. incubator for 2 to 3 minutes until cells fell off.
4) 9 mL of fresh culture medium was added to neutralize the digestion; the cells were aspirated into a centrifuge tube and centrifuged at 1000 rpm at room temperature for 5 minutes.
5) The supernatant was removed, and 3 mL of fresh culture medium was added to resuspend the cells; the cells were counted by a cell counter.
1) 7000 cells per well were plated in a 384-cell culture plate with 40 μL of culture medium, and cultured overnight in a 37° C. and 5% CO2 incubator.
2) The Echo655 instrument was used to add 40 nL of serially diluted compounds (the initial concentration of the compound was 1000 nM, and the compound was serially diluted 3-fold. […]

[2] = target: T1, KRAS^G12D (Homo sapiens (Human), UniProt P01116, G12D); assay: SOS1-mediated binding of KRAS^G12D to effector protein c-Raf (TR-FRET); assay type: biochemical; details: KRAS G12D/c-Raf/SOS1/GTP, read-out: IC50 Values of Compounds for KRAS^G12D Activity
T1 sequence (P01116-2 other isoform, or with tags, fused parts or gaps G12D): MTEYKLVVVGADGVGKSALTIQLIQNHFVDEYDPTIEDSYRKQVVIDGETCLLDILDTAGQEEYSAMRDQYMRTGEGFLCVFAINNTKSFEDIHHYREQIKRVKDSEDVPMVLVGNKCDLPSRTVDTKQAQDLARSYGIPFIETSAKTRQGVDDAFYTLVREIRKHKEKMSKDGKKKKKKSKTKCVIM
Method: Assay example 1: Assay of SOS1-mediated binding ability of KRAS^G12D to effector protein c-Raf
2. Assay steps 2.1 Preparation of 1×enzymatic reaction buffer:
2.2 Preparation of KRAS G12D enzyme (2×):
2.3 Preparation of substrate and antibody mixture (2×):
1) The compounds were serially diluted 5-fold with DMSO in a dilution plate to a final starting concentration of 10 μM.
2) The compounds were transferred with Echo to a 384 reaction plate with […] per well.
3) 5 μL of KRAS G12D enzyme was added to each well of the reaction plate.
4) The plates were sealed with a sealing film and centrifuged at 1000 g for 30 seconds, and then incubated at room temperature for 15 minutes.
5) 2× cRaf/SOS1/GTP/MAb Anti 6HIS-d2/MAb Anti GST-Eu mixture was prepared with 1× enzyme reaction buffer, and 5 μL of the mixture was added to the reaction plate.
6) The mixture was centrifuged at 1000g for 30 seconds and reacted at room temperature for 2 hours.
7) The fluorescence signals at 615 nm (Cryptate) and 665 nm (XL665) were read with a BMG microplate reader.
8) Data analysis was performed using Graphpad 7.0 software to give IC50.

[3] = tested on: KRAS^G12D mutated AsPC-1 cells; assay: Anti-cell proliferation in tumor cell line AsPC-1 (CellTiter-Glo 3D); assay type: cell-based; details: Homo sapiens, ASPC1; AsPC-1, 120 hours, 3D culture; read-out: Anti-proliferation Activity against KRAS^G12D Mutated AsPC-1 Cells IC50
From the text: Assay example 2. Anti-cell proliferation effects of compounds in tumor cell line AsPC-1 1. Research purpose
In this assay, the inhibitory effects of compounds on cell proliferation were studied by detecting the effects of compounds on the in vitro cell activity in the tumor cell line AsPC-1.
Ultra Low Cluster-96 well plate (Corning-7007)
Greiner CELLSTAR 96-well plate (#655090)
Promega CellTiter-Glo 3D Luminescence Cell Viability Detection Kit (Promega-G9683)
2104-10 En Vision Plate Reader, PerkinElmer
RPMI 1640, DMEM, PBS (phosphate buffered solution), FBS (fetal bovine serum), Antibiotic-antimycotic, L-glutamine, DMSO (dimethyl sulfoxide)
3. Assay methods and steps Cell culture
The tumor cell line was cultured in a 37° C., 5% CO2 incubator according to the culture conditions indicated in the culture method. […]
Cells were stained with trypan blue and viable cells were counted. […]
CellTiter-Glo luminescence assay for cell viability detection (day 5)
The following steps were performed according to the instructions of the Promega CellTiter-Glo 3D Luminescence Cell Viability Dectection Kit (Promega #G9683). […]
The solution in the ULA culture plate was then transferred to a black bottom culture plate (#655090) and left at room temperature for 25 minutes to stabilize the luminescence signal.
Luminescence signals were detected with a 2104 EnVision plate reader. […]

[4] = Pharmacokinetic study in vivo in mice; details: mouse, plasma, male C57BL/6J mice; for AUC(0-t): read-out: area under plasma concentration-time curve AUC0-last
Method: Male C57BL/6J mice aged 7 to 10 weeks were selected, and administered candidate compound solutions intravenously or orally. Whole blood was collected for a certain period of time. Plasma was prepared. Drug concentration was analyzed by LC-MS/MS method. Pharmacokinetic parameters were calculated using Certara WinNonlin software (Certara Company, USA).

[5] = target: T1, KRAS^G12D; assay: Activity of inhibiting KRAS^G12D: binding of KRAS to GTP (TR-FRET, SOS/GTP exchange); assay type: biochemical; details: Bodipy GDP/SOS/GTP

C#Cc1c(F)ccc2cc(N)cc(-c3c(F)cc4c(N5CC6C=CC(C5)N6)nc(OC[C@@]56CCCN5C[C@H](F)C6)nc4c3F)c12 [Compound 002A]
IC50 [1]: 0.15 nM | IC50 [2]: 23.7 nM | IC50 [3]: 17.7 nM | Vd ([4]; intravenous administration, dose 1.74-1.94 mg/kg, read-out: apparent volume of distribution Vdss): 56.3 L/kg | AUC(0-t) ([4]; intravenous administration, dose 1.74-1.94 mg/kg): 0.267 µM·h | clearance ([4]; intravenous administration, dose 1.74-1.94 mg/kg, read-out: clearance rate CL): 189 mL/min/kg | half-life ([4]; intravenous administration, dose 1.74-1.94 mg/kg, read-out: half-life T1/2 (converted)): 7.12 h | AUC(0-t) ([4]; oral administration, dose 28.2-51.0 mg/kg): 0.637 µM·h | bioavailability ([4]; oral administration, dose 28.2-51.0 mg/kg, read-out: bioavailability F): 16.1% | Cmax ([4]; oral administration, dose 28.2-51.0 mg/kg, read-out: peak concentration Cmax): 345 nM | Tmax ([4]; oral administration, dose 28.2-51.0 mg/kg, read-out: peak time Tmax): 1.13 h

C#Cc1c(F)ccc2cc(N)cc(-c3cc(OC)c4c(N5CC6C=CC(C5)N6)nc(OC[C@@]56CCCN5C[C@H](F)C6)nc4c3F)c12 [Compound 006]
IC50 [2]: 37.4 nM

C#Cc1c(F)ccc2cc(N)cc(-c3ccc4c(N5CC6C=CC(C5)N6)nc(OC[C@@]56CCCN5C[C@H](F)C6)nc4c3F)c12 [Compound 003]
IC50 [2]: 20.4 nM

Oc1cc(-c2c(Cl)cc3c(N4C5CCC4CNC5)nc(OC[C@@]45CCCN4C[C@H](F)C5)nc3c2F)c2ccccc2c1 [Compound 029 hydrochloride]
IC50 [5]: 38.6 nM

C#Cc1c(F)ccc2cc(N)cc(-c3c(F)cc4c(N5CC6C=CC(C5)N6)nc(OC[C@]56CCCN5CC(=C)C6)nc4c3F)c12 [Compound 016B]
IC50 [3]: 14.2 nM

C#Cc1c(F)ccc2cc(N)cc(-c3c(Cl)cc4c(N5CC6C=CC(C5)N6)nc(OC[C@@]56CCCN5C[C@H](F)C6)nc4c3F)c12 [Compound 001B]
IC50 [2]: 18.9 nM

C#Cc1c(F)ccc2cc(O)cc(-c3ccc4c(N5CC6C=CC(C5)N6)nc(OC[C@@]56CCCN5C[C@H](F)C6)nc4c3F)c12 [Compound 005]
IC50 [2]: 12.3 nM

Source: patent publication US20240383924A1, “BENZOPYRIMIDINE COMPOUNDS AND USE THEREOF” (priority 2022, published 2024)
